Calls of active or inactive are those of the source. The calls are words filed in the database; no cut-off is given here.
Tests used:
Homo sapiens [1] = organism: Homo sapiens; experiment: Binding affinity to 14C3 DNA triplex assessed as melting temperature change from triplex to duplex DNA forms by UV absorption spectrometry
Homo sapiens [2] = organism: Homo sapiens; experiment: Binding affinity to 14C3 DNA triplex assessed as melting temperature for transition from duplex to single strand DNA forms by UV absorption spectrometry
Homo sapiens [3] = organism: Homo sapiens; experiment: Binding affinity to 14C3 DNA triplex assessed as melting temperature for transition from triplex to duplex DNA forms by UV absorption spectrometry
Homo sapiens [4] = organism: Homo sapiens; experiment: Binding affinity to 14C3 DNA triplex assessed as melting temperature change from duplex to single strand DNA forms by UV absorption spectrometry
Homo sapiens [5] = organism: Homo sapiens; experiment: Binding affinity to 14C3 DNA triplex assessed as stabilization of triplex DNA form

Row | SMILES | ΔTm (Homo sapiens [1]) [°C] | Tm (Homo sapiens [2]) [°C] | Tm (Homo sapiens [3]) [°C] | ΔTm (Homo sapiens [4]) [°C] | Activity (Homo sapiens [5])
1 | NCCCNc1ccc2c(c1)-n1c(nc3ccccc3c1=O)C2=O | 13 | 64.7 | 33.5 | 5.7 | –
2 | COc1ccc2c(ccc3c2[nH]c2c(C)cnc(NCCCN(C)CCCN)c23)c1 | – | – | – | – | Active
3 | COc1ccc2c(ccc3[nH]c4c(C)cnc(NCCCN)c4c32)c1 | – | – | – | – | Active

Second part, the molecule after the results:

Row | ΔTm (Homo sapiens [1]) [°C] | Tm (Homo sapiens [2]) [°C] | Tm (Homo sapiens [3]) [°C] | ΔTm (Homo sapiens [4]) [°C] | Activity (Homo sapiens [5]) | SMILES
4 | 18.8 | 62.3 | 39.3 | 3.3 | – | CN(CCCN)c1ccc2c(c1)-n1c(nc3ccccc3c1=O)C2=O
5 | 24.8 | 61.8 | 45.3 | 2.8 | – | CN(CCCN)c1cc2c(cc1F)C(=O)c1nc3ccccc3c(=O)n1-2
6 | 19.3 | 63.8 | 39.8 | 4.8 | – | NCCCNc1cc2c(cc1F)C(=O)c1nc3ccccc3c(=O)n1-2
